Experimental data as given in US8916604B2, “Compositions and methods for epigenetic modification of nucleic acid sequences” (Rutgers, The State University of New Jersey, priority 2011, dated 2014).

Legend:
[1] = system: apoptotic cells in the dorso-lateral prostates; assay: IHC staining of TRAMP prostate tissue, apoptosis (TUNEL); format: in vivo, mouse; details: D-G1 and D-G2 vs control, p<0.001
Method: Sections (4 μm) were cut from the paraffin embedded prostate tissue and mounted on glass slides. The slides Were deparafinized in xylene and antigen unmasking was performed by applying proteinase K digestion directly on the slides for 15 min. Endogenous peroxidase was blocked by incubating in 3% […] for 5 min, and ApopTag Plus Peroxidase In Situ Apoptosis Detection Kit (Millipore, Temecula, Calif., U.S.A.) was used to detect apoptotic cells. For detection of proliferative cells, monoclonal mouse anti-proliferating cell nuclear antigen (PCNA) antibody (Clone PC10, 1:50, Dako North America, Carpinteria, Calif., U.S.A.) was used (12). The staining was performed following as the manufacturer's protocols. Anti-5-methylcytosine (5-MC) mouse monoclone antibody (Clone 162 33 D3, 1:50, EMD Chemicals, Philadelphia, Pa., U.S.A.) was used to detect genome-wide methylated DNA. […] Quantitation of IHC staining was done using the Aperio ScanScope® GL system according to the manufactures protocol (Aperio Technologies Inc., Vista, Calif., U.S.A.). […] The Aperio ImageScopoe software (v 10.1.3.2028) allowed the unbiased quantification and quantitative analysis of the IHC staining of biomarkers of prostate tumor samples obtained from untreated control versus the treated TRAMP mice.

HO-1 = assay: qPCR mRNA expression in HepG2-C8 cells; format: cell-based, human; details: 25 μM, 6 h, vs 0.1% DMSO
Method: (§1) The cells were treated similarly to the NITS and ARE-luciferase assays described above using 10% FBS medium. The incubation of the compounds with the cells was terminated 6 h later. The mRNA expression was evaluated utilizing a quantitative real-time polymerase chain reaction (qPCR). An RNeasy kit from Qiagen was used for RNA extraction (Valencia, Calif.). The total RNA was reverse-transcribed to cDNA by TaqMan Reverse Transcription Reagents (Applied Biosystems Inc, Foster City, Calif.). SYBR Green (Applied Biosystems Inc, Foster City, Calif.) fluorescence was used to measure the product of qPCR. Glyceraldehyde 3-phosphate dehydrogenase (GAPDH) was used as the housekeeping gene, and the Applied Biosystems 7900HT Fast Real-Time PCR System (Applied Biosystems Inc, Foster City, Calif.) was used as described previously (Saw et al., Biochem Pharmacol 2010; 79: 421-430) to detect quantitatively the induction of mRNA of Nrf2, phase II DME GSTm2, NAD (P)H dehydrogenase, quinone 1 (NQO1), UGT family, polypeptide A1 (UGT1A1) and antioxidant enzymes HO-1, superoxide dismutase 1 (SOD1). The primer pairs were designed using the Primer Quest Oligo Design and Analysis Tool by Integrated DNA Technologies Inc. (Coralville, Iowa, USA) and the sequences are listed in Table 4. At least four wells of each treatment were performed and duplicate samples were carried out for each treatment.

Nrf2 [2] = assay: qPCR mRNA expression in HepG2-C8 cells; format: cell-based, human; details: 25 μM, 6 h, vs 0.1% DMSO
Method: as §1

NQO1 = assay: Western blot of TRAMP dorso-lateral prostate tissues; format: in vivo, mouse; details: D-G1 and D-G2; undetectable in control
Method: (§2) The TRAMP C1 cells or dorso-lateral prostate tissues collected from treated and control groups were pooled and homogenized with RIPA buffer (Cell Signaling Technology, Danvers, Mass., U.S.A.) and 10 μg/ml protease inhibitor cocktail (EMD Chemicals, Philadelphia, Pa., U.S.A.). Protein (20 μg) was loaded onto 4-15% SDS-PAGE (Bio-Rad Laboratories, Hercules, Calif., U.S.A.). After separation by SDS-PAGE, the protein was transferred onto nitrocellulose membrane (Millipore Corp., Billerica, Mass., U.S.A.), and then was blocked in 5% bovine serum albumin (BSA) (Fisher Scientific, Fair Law, J. U.S.A.) in tris buffer saline tween-20 (TBST) solution for 1 h. […] After washing min 4 times with TBST solution, the immunoreactive bands were determined by adding SuperSignal West Femto mix (1:1 mix of stable peroxide buffer and luminol/enhancer solution (Thermo Scientific, Rockford, Ill., U.S.A.) to detect immunoreactive bands. The bands were visualized and quantified by BioRad ChemiDoc XRS system (Hercules, Calif., U.S.A.). The primary antibodies used were β-actin, Nrf2, NQO1 (Santa Cruz Biotechnology, Santa Cruz, Calif., U.S.A.), HDAC1, HDAC2, HDAC3, HDAC4 (Cell Signaling Technology Inc., Danvers Mass., U.S.A.), HDAC8 (Proteintech Group Inc., Chicago, Ill., U.S.A.) and DNMT1, DNMT3a, DNMT3b (Imgenex, San Diego, Calif., U.S.A.). […]

Nrf2 [3] = assay: as above; format: in vivo, mouse; details: D-G1 and D-G2; undetectable in control
Method: as §2

Compound: c1ccc2c(Cc3c[nH]c4ccccc34)c[nH]c2c1 [DIM, 3,3′-diindolylmethane]
- percent of apoptotic cells [1]: significantly higher
- HO-1 mRNA induction over control (HO-1): ~3 fold
- Nrf2 mRNA induction over control (Nrf2 [2]): ~3 fold
- NQO1 protein expression (NQO1): induced
- Nrf2 protein expression (Nrf2 [3]): induced
